Measurements published in patent publication US20180305332A1, “Bispiperidinyl Derivatives as Liver X Receptor Beta Agonists, Compositions, and Their Use” (Merck Sharp & Dohme Corp., priority 2015, published 2018).

Legend:
[1] = target: T1, GST tagged LXRbeta LBD (ligand binding domain) (Homo sapiens, UniProt P55055); test: LanthaScreen TR-FRET Liver X Receptor Coactivator Assay, LXR beta-LBD; format: biochemical; details: relative to reference T0901317; for EC50: Inflection Point (potency), co-activator recruitment, read-out: LXR beta IP; for Emax: activity at max dose (efficacy), read-out: LXR beta act @ max dose (%)
T1 construct: purchased Invitrogen pv4658.pps
T1 sequence (P55055 222-460 limits assumed): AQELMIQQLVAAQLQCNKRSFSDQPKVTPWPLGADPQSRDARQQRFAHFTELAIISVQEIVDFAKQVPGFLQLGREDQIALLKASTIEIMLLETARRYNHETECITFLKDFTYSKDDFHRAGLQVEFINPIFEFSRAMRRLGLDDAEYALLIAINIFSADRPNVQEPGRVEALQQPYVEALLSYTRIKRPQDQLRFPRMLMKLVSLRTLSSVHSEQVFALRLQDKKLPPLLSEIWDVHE
Procedure, shortened: (§1)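 Coactivator-recruitment TR-FRET format: GST-LBD, fluorescein-labelled coactivator peptide, Tb-conjugated anti-GST antibody, incubated at RT. Potency and efficacy scaled to T0901317.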

[2] = target: T2, GST tagged LXRalpha LBD (ligand binding domain) (Homo sapiens, UniProt Q13133); test: LanthaScreen TR-FRET Liver X Receptor Coactivator Assay, LXR alpha-LBD; format: biochemical; details: relative to reference T0901317; for EC50 / LXR alpha IP (nM): Inflection Point (potency), co-activator recruitment; for EC50: read-out: LXR alpha IP; for Emax: activity at max dose (efficacy), read-out: LXR alpha act @ max dose (%)
T2 construct: purchased Invitrogen pv4655
T2 sequence (Q13133 209-447 limits assumed): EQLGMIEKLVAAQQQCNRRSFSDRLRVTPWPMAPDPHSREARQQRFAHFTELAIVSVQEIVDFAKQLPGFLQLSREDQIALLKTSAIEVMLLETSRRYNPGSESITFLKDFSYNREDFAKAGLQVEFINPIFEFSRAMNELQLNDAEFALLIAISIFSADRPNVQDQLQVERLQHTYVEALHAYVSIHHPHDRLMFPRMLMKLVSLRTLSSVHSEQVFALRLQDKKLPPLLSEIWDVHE
Procedure, shortened: as §1

EC50 [1] [nM] | Emax [1] [%] | EC50 [2] [nM] | Emax [2] [%] | LXR alpha IP (nM) [2] | SMILES
197 | 78 | – | 25 | NO IP | O=C(c1ccc(N2CCC(C3CCN(C(=O)[C@](O)(c4ccccc4)C(F)(F)F)CC3)CC2)cc1Cl)N1CCCC1 [Example E-20]
297 | 81 | 127 | 30 | – | CC(C)C(O)(C(=O)N1CCC(C2CCN(c3ccc(C(=O)N4CC(F)(F)C4)c(Cl)c3)CC2)CC1)C(F)(F)F (stereo not shown) [Example E-3, 2-[(1′-{3-chloro-4-[(3,3-difluoroazetidin-1-yl)carbonyl]phenyl}-4,4′-bipiperidin-1-yl)carbonyl]-1,1,1-trifluoro-3-methylbutan-2-ol]
17 | 137 | 635 | 64 | – | CC(C)(C)OC(=O)NC1CN(C(=O)c2ccc(N3CCC(C4CCN(C(=O)[C@](O)(c5ccccc5)C(F)(F)C(F)(F)F)CC4)CC3)cc2Cl)C1 [Example E-65, tert-butyl {1-[(2-chloro-4-{1′-[(2R)-3,3,4,4,4-pentafluoro-2-hydroxy-2-phenylbutanoyl]-4,4′-bipiperidin-1-yl}phenyl)carbonyl]azetidin-3-yl}carbamate]
95 | 62 | – | 13 | NO IP | O=C(c1ccc(N2CCC(C3CCN(C(=O)[C@](O)(c4ccccc4)C(F)(F)F)CC3)CC2)cc1Cl)N1CCCC1C(F)(F)F (stereo partly drawn) [Example E-21, (2R)-3-[1′-(3-chloro-4-{[2-(trifluoromethyl)pyrrolidin-1-yl]carbonyl}phenyl)-4,4′-bipiperidin-1-yl]-1,1,1-trifluoro-3-oxo-2-phenylpropan-2-ol]
98 | 39 | 1460 | 25 | – | O=C(c1ccc(N2CCC(C3CCN(C(=O)[C@](O)(c4ccccc4)C(F)(F)F)CC3)CC2)cc1Cl)N1CC(N2CCCC2)C1 [Example E-42, (2R)-3-(1′-{3-chloro-4-[(3-pyrrolidin-1-ylazetidin-1-yl)carbonyl]phenyl}-4,4′-bipiperidin-1-yl)-1,1,1-trifluoro-3-oxo-2-phenylpropan-2-ol]
144 | 57 | 2260 | 22 | – | COC(=O)C1CN(C(=O)c2ccc(N3CCC(C4CCN(C(=O)[C@](O)(c5ccccc5)C(F)(F)F)CC4)CC3)cc2Cl)C1 [Example E-32, methyl 1-[(2-chloro-4-{1′-[(2R)-3,3,3-trifluoro-2-hydroxy-2-phenylproanoyl]-4,4′-bipiperidin-1-yl}phenyl)carbonyl]azetidine-3-carboxylate]
355 | 50 | 3010 | 24 | – | O=C(c1ccc(N2CCC(C3CCN(C(=O)[C@](O)(c4ccccc4)C(F)(F)F)CC3)CC2)cc1Cl)N1CC(c2cccnc2)C1 [Example E-43, (2R)-3-(1′-{3-chloro-4-[(3-pyridin-3-ylazetidin-1-yl)carbonyl]phenyl}-4,4′-bipiperidin-1-yl)-1,1,1-trifluoro-3-oxo-2-phenylpropan-2-ol]
153 | 25 | 58 | 26 | – | COC(=O)c1ccc(N2CCC(C3CCN(C(=O)c4c(F)cccc4F)CC3)CC2)cc1Cl [Example E-2, methyl 2-chloro-4-{1′-[(2,6-difluorophenyl)carbonyl]-4,4′-bipiperidin-1-yl}benzoate]
26 | 146 | 913 | 54 | – | CN(CCO)C(=O)c1ccc(N2CCC(C3CCN(C(=O)[C@](O)(c4ccccc4)C(F)(F)C(F)(F)F)CC3)CC2)cc1Cl [Example E-64, 2-chloro-N-(2-hydroxyethyl)-N-methyl-4-{1′-[(2R)-3,3,4,4,4-pentafluoro-2-hydroxy-2-phenylbutanoyl]-4,4′-bipiperidin-1-yl}benzamide]
279 | 92 | 1450 | 25 | – | O=C(c1ccc(N2CCC(C3CCN(C(=O)[C@](O)(c4ccccc4)C(F)(F)F)CC3)CC2)cc1Cl)N1CC[C@H](F)C1 [Example E-26, (2R)-3-[1′-(3-chloro-4-{[(3S)-3-fluoropyrrolidin-1-yl]carbonyl}phenyl)-4,4′-bipiperidin-1-yl]-1,1,1-trifluoro-3-oxo-2-phenylpropan-2-ol]
21 | 89 | 488 | 45 | – | CC(C)(C)OC(=O)NC1CN(C(=O)c2ccc(N3CCC(C4CCN(C(=O)[C@](O)(c5ccccc5)C(F)(F)F)CC4)CC3)cc2Cl)C1 [Example E-56, tert-butyl {1-[(2-chloro-4-{1′-[(2R)-3,3,3-trifluoro-2-hydroxy-2-phenylpropanoyl]-4,4′-bipiperidin-1-yl}phenyl)carbonyl]azetidin-3-yl}carbamate]

More lines, now with the values behind:

SMILES | EC50 [1] [nM] | Emax [1] [%] | EC50 [2] [nM] | Emax [2] [%] | LXR alpha IP (nM) [2]
Cc1nc(N2CCC(C3CCN(C(=O)C(O)(C(C)C)C(F)(F)F)CC3)CC2)ccc1C(=O)N(C)C (stereo not shown) [Example C-1, 6-(1′-(2-Hydroxy-3-methyl-2-(trifluoromethyl)butanoyl)-[4,4′-bipiperidin]-1-yl)-N,N,2-trimethylnicotinamide] | 148 | 101 | 21 | 24 | –
CN(C)C(=O)c1ccc(N2CCC(C3CCN(C(=O)C(C)(C)C(F)(F)F)CC3)CC2)cc1Cl [Example A-41, 2-chloro-N,N-dimethyl-4-[1′-(3,3,3-trifluoro-2,2-dimethylpropanoyl)-4,4′-bipiperidin-1-yl]benzamide] | 84 | 112 | 3390 | 71 | –
COc1ccccc1C(C)(C)C(=O)N1CCC(C2CCN(c3ccc(C(=O)N(C)C)c(Cl)c3)CC2)CC1 [Example A-88, 2-chloro-4-{1′-[2-(2-methoxyphenyl)-2-methylpropanoyl]-4,4′-bipiperidin-1-yl}-N,N-dimethylbenzamide] | 74 | 101 | 1080 | 37 | –
CN(C)C(=O)c1ccc(N2CCC(C3CCN(C(=O)C(c4ccccc4)C(F)(F)F)CC3)CC2)cc1Cl (stereo not shown) [Example A-98, 2-chloro-N,N-dimethyl-4-[1′-(3,3,3-trifluoro-2-phenylpropanoyl)-4,4′-bipiperidin-1-yl]benzamide] | 324 | 92 | 4960 | 33 | –
CN(C)C(=O)c1ccc(N2CCC(C3CCN(C(=O)C4(c5ccccc5Cl)CC4)CC3)CC2)cc1Cl [Example A-86, 2-chloro-4-(1′-{[1-(2-chlorophenyl)cyclopropyl]carbonyl}-4,4′-bipiperidin-1-yl)-N,N-dimethylbenzamide] | 16 | 112 | 671 | 73 | –
CN(C)C(=O)c1c(Cl)cc(N2CCC(C3CCN(C(=O)c4c(F)cccc4F)CC3)CC2)cc1Cl [Example A-32, 2,6-dichloro-4-{1′-[(2,6-difluorophenyl)carbonyl]-4,4′-bipiperidin-1-yl}-N,N-dimethylbenzamide] | 101 | 88 | 748 | 24 | –
CN(C)C(=O)c1ccc(N2CCC(C3CCN(C(=O)C(O)(c4ccccc4)C(F)(F)C(F)(F)C(F)(F)F)CC3)CC2)cc1Cl (stereo not shown) [Example A-54, 2-chloro-4-[1′-(3,3,4,4,5,5,5-heptafluoro-2-hydroxy-2-phenylpentanoyl)-4,4′-bipiperidin-1-yl]-N,N-dimethylbenzamide] | 410 | 75 | 827 | 15 | –
CN(C)C(=O)c1ccc(N2CCC(C3CCN(C(=O)C(O)(CCc4ccccc4)C(F)(F)F)CC3)CC2)cc1Cl (stereo not shown) [Example A-49, 2-chloro-4-{1′-[2-hydroxy-4-phenyl-2-(trifluoromethyl)butanoyl]-4,4′-bipiperidin-1-yl}-N,N-dimethylbenzamide] | 429 | 32 | – | 16 | NO IP
CN(C)C(=O)c1ccc(N2CCC(C3CCN(S(=O)(=O)c4c(Cl)cccc4Cl)CC3)CC2)cc1Cl [Example A-104, 2-chloro-4-{1′-[(2,6-dichlorophenyl)sulfonyl]-4,4′-bipiperidin-1-yl}-N,N-dimethylbenzamide] | 21 | 129 | 2340 | 67 | –
Cc1cccc(C2(C(=O)N3CCC(C4CCN(c5ccc(C(=O)N(C)C)c(Cl)c5)CC4)CC3)CCC2)c1 [Example A-19, 2-chloro-N,N-dimethyl-4-(1′-{[1-(3-methylphenyl)cyclobutyl]carbonyl}-4,4′-bipiperidin-1-yl)benzamide] | 124 | 94 | 1750 | 17 | –
CS(=O)(=O)c1ccc(N2CCC(C3CCN(C(=O)[C@](O)(c4ccccc4)C(F)(F)F)CC3)CC2)cc1Cl [Example D-7, (2R)-3-{1′-[3-chloro-4-(methylsulfonyl)phenyl]-4,4′-bipiperidin-1-yl}-1,1,1-trifluoro-3-oxo-2-phenylpropan-2-ol] | 180 | 82 | 413 | 20 | –
